Measurements from PubChem BioAssay AID222 (DTP/NCI, 2004).
Values joined by “and” are separate entries in the source; they are usually repeats but may differ in a detail not shown here. Identical values can stand only once. Toxic doses and inconclusive results are not listed. Rule for the calls: active = survival T/C of 150% or more; inactive = T/C below 125% in these data. Starred links: 1 amine or outer side, 2 acyl side, 3 side chain; linkers in the order of their positions; H or OH if unused. Positions of bridges follow the written chain, without caps; N, C: chain ends. Non-standard residues stand in square brackets, D forms with d. Residues, ends and D or L forms follow the SMILES beside them. Chains are numbered I, II in the order given. Actinocin(1to9) = Cc1c2oc3c(C)ccc(C(=O)[*:2])c3nc-2c(C(=O)[*:1])c(N)c1=O; Actinocin(9to1) = Cc1c2oc3c(C)ccc(C(=O)[*:1])c3nc-2c(C(=O)[*:2])c(N)c1=O; aThr = C[C@H](O)[C@H](N)C(=O)O; NMeV = CN[CH](C(=O)O)C(C)C; Aze = O=C(O)[CH]1CCN1; Sar = CNCC(=O)O

Test system: C57BL/6 mice, intracerebral ependymoblastoma, median survival T/C
Test: NCI In Vivo Anticancer Drug Screen. Data for tumor model Ependymoblastoma (intracerebral) in C57BL/6 mice
Conditions: endpoint: median survival time, higher = longer survival
Protocol: The antitumor activity of compounds was measured in mice bearing transplantable tumors. Survival or tumor size were measured and the results are expressed as the measurement made in the treated group (T) divided by the measurement made in the vehicle treated control group (C). The tumor model used in this assay is Ependymoblastoma (intracerebral) in C57BL/6 mice

[1] = dose: 12.5 micrograms/kg/injection, schedule: Q01DX005 (ip), vehicle: saline
[2] = dose: 25.0 micrograms/kg/injection, schedule: Q01DX005 (ip), vehicle: saline
[3] = dose: 50.0 micrograms/kg/injection, schedule: Q01DX005 (ip), vehicle: saline
[4] = dose: 0.05 mg/kg/injection, schedule: Q01DX005 (ip), vehicle: saline
[5] = dose: 0.1 mg/kg/injection, schedule: Q01DX005 (ip), vehicle: saline
[6] = dose: 0.2 mg/kg/injection, schedule: Q01DX005 (ip), vehicle: saline
[7] = dose: 0.4 mg/kg/injection, schedule: Q01DX005 (ip), vehicle: saline
[8] = dose: 0.8 mg/kg/injection, schedule: Q01DX005 (ip), vehicle: saline
[9] = dose: 90.0 mg/kg/injection, schedule: Q01DX005 (ip), vehicle: saline with Tween-80
[10] = dose: 32.0 mg/kg/injection, schedule: Q01DX005 (ip), vehicle: Klucel (hydroxypropylcellulose) (HPC)
[11] = dose: 64.0 mg/kg/injection, schedule: Q01DX005 (ip), vehicle: Klucel (hydroxypropylcellulose) (HPC)

Measured: T/C

Cc1c2oc3c(C)ccc(C(=O)N[C@@H]4C(=O)N[C@H](C(C)C)C(=O)N5CCC[C@H]5C(=O)N(C)CC(=O)N(C)[C@@H](C(C)C)C(=O)O[C@H]4C)c3nc-2c(C(=O)N[C@@H]2C(=O)N[C@H](C(C)C)C(=O)N3CCC[C@H]3C(=O)N(C)CC(=O)N(C)[C@@H](C(C)C)C(=O)O[C@H]2C)c(N)c1=O (I: [aThr][dV]P[Sar][NMeV] / II: [aThr][dV]P[Sar][NMeV]; ester I:1-I:C, II:1-II:C; linker I:N-II:N via Actinocin(9to1))
inactive: [1] 116 % of control | [2] 97 % of control | [3] 101 % of control

CC[C@]12CN3CCc4c([nH]c5ccccc45)[C@@](C(=O)OC)(c4cc5c(cc4OC)N(C)[C@H]4[C@@](O)(C(=O)OC)[C@H](OC(C)=O)[C@]6(CC)C=CCN7CC[C@]54[C@@H]76)CC(C3)[C@H]1O2 (stereo not given in full)
inactive: [4] 94 % of control | [5] 93 % of control | [6] 93 % of control | [7] 108 % of control | [8] 103 % of control | dose: 1.6 mg/kg/injection, schedule: Q01DX005 (ip), vehicle: saline 103 % of control | dose: 3.2 mg/kg/injection, schedule: Q01DX005 (ip), vehicle: saline 113 % of control | dose: 6.4 mg/kg/injection, schedule: Q01DX005 (ip), vehicle: saline 103 % of control | dose: 12.8 mg/kg/injection, schedule: Q01DX005 (ip), vehicle: saline 103 % of control

Nc1ncnc2nc[nH]c12
inactive: dose: 128.0 mg/kg/injection, schedule: Q01DX005 (ip), vehicle: saline with Tween-80 92 % of control

O=c1cnn(C2OC(CO)C(O)C2O)c(=O)[nH]1 (stereo not given)
inactive: dose: 250.0 mg/kg/injection, schedule: Q01DX005 (ip), vehicle: saline 102 % of control | dose: 500.0 mg/kg/injection, schedule: Q01DX005 (ip), vehicle: saline 109 % of control and 111 % of control | dose: 1000.0 mg/kg/injection, schedule: Q01DX005 (ip), vehicle: saline 105 % of control and 109 % of control | dose: 2000.0 mg/kg/injection, schedule: Q01DX005 (ip), vehicle: saline 115 % of control

ClC(Cl)=C(Cl)Cl
inactive: dose: 22.0 mg/kg/injection, schedule: Q01DX005 (ip), vehicle: saline with Tween-80 111 % of control | dose: 45.0 mg/kg/injection, schedule: Q01DX005 (ip), vehicle: saline with Tween-80 90 % of control | [9] 88 % of control and 92 % of control

S=c1nc[nH]c2nc[nH]c12
inactive: dose: 10.0 mg/kg/injection, schedule: Q01DX001 (ip), vehicle: Klucel (hydroxypropylcellulose) (HPC) 103 % of control | dose: 10.0 mg/kg/injection, schedule: Q01DX005 (ip), vehicle: Klucel (hydroxypropylcellulose) (HPC) 89 % of control and 103 % of control | dose: 20.0 mg/kg/injection, schedule: Q01DX001 (ip), vehicle: Klucel (hydroxypropylcellulose) (HPC) 91 % of control | dose: 20.0 mg/kg/injection, schedule: Q01DX005 (ip), vehicle: Klucel (hydroxypropylcellulose) (HPC) 107 % of control and 122 % of control | dose: 40.0 mg/kg/injection, schedule: Q01DX001 (ip), vehicle: Klucel (hydroxypropylcellulose) (HPC) 109 % of control | dose: 80.0 mg/kg/injection, schedule: Q01DX001 (ip), vehicle: Klucel (hydroxypropylcellulose) (HPC) 113 % of control | dose: 160.0 mg/kg/injection, schedule: Q01DX001 (ip), vehicle: Klucel (hydroxypropylcellulose) (HPC) 102 % of control

Cc1c2oc3c(C)ccc(C(=O)NC4C(=O)NC(C(C)C)C(=O)N5CCCC5C(=O)N(C)CC(=O)N(C)C(C(C)C)C(=O)OC4C)c3nc-2c(C(=O)NC2C(=O)NC(C(C)C)C(=O)N3CCC3C(=O)N(C)CC(=O)N(C)C(C(C)C)C(=O)OC2C)c(N)c1=O (stereo not given) (I: TV[Aze][Sar][NMeV] / II: TVP[Sar][NMeV]; ester I:1-I:C, II:1-II:C; linker I:N-II:N via Actinocin(1to9); configuration not given here)
inactive: [1] 110 % of control | [2] 107 % of control | [3] 101 % of control | dose: 100.0 micrograms/kg/injection, schedule: Q01DX005 (ip), vehicle: saline 111 % of control

[N-]=[N+]=CC(=O)CCC(N)C(=O)O (stereo not given)
inactive: [4] 101 % of control | [5] 115 % of control | [6] 106 % of control | [8] 121 % of control

O=c1ccc2ccccc2o1
inactive: [9] 101 % of control | dose: 180.0 mg/kg/injection, schedule: Q01DX005 (ip), vehicle: saline with Tween-80 86 % of control | dose: 720.0 mg/kg/injection, schedule: Q01DX005 (ip), vehicle: saline with Tween-80 97 % of control

NC(CSC(c1ccccc1)(c1ccccc1)c1ccccc1)C(=O)O (stereo not given)
inactive: [10] 99 % of control | [11] 109 % of control

COc1cc2cc3c4cc(OC)c(OC)cc4cc[n+]3c(C)c2cc1OC (tested in a mixture with another compound)
inactive: dose: 8.0 mg/kg/injection, schedule: Q01DX001 (ip), vehicle: saline 98 % of control | dose: 16.0 mg/kg/injection, schedule: Q01DX001 (ip), vehicle: saline 91 % of control | dose: 16.0 mg/kg/injection, schedule: Q#A X002 (ip), vehicle: saline 94 % of control | dose: 32.0 mg/kg/injection, schedule: Q01DX001 (ip), vehicle: saline 90 % of control | [10] 89 % of control | dose: 32.0 mg/kg/injection, schedule: Q#A X002 (ip), vehicle: saline 97 % of control and 105 % of control | dose: 64.0 mg/kg/injection, schedule: Q01DX001 (oral), vehicle: saline 100 % of control and 104 % of control | [11] 103 % of control and 107 % of control | dose: 64.0 mg/kg/injection, schedule: Q#A X002 (ip), vehicle: saline 111 % of control | dose: 128.0 mg/kg/injection, schedule: Q01DX001 (oral), vehicle: saline 100 % of control and 103 % of control | dose: 128.0 mg/kg/injection, schedule: Q01DX005 (ip), vehicle: Klucel (hydroxypropylcellulose) (HPC) 118 % of control and 121 % of control | dose: 128.0 mg/kg/injection, schedule: Q#A X002 (ip), vehicle: saline 103 % of control and 106 % of control | dose: 256.0 mg/kg/injection, schedule: Q01DX001 (ip), vehicle: saline 87 % of control | dose: 256.0 mg/kg/injection, schedule: Q01DX001 (oral), vehicle: saline 88 % of control and 103 % of control | dose: 256.0 mg/kg/injection, schedule: Q01DX005 (ip), vehicle: Klucel (hydroxypropylcellulose) (HPC) 118 % of control | dose: 256.0 mg/kg/injection, schedule: Q#A X002 (ip), vehicle: saline 87 % of control and 98 % of control | dose: 512.0 mg/kg/injection, schedule: Q01DX001 (oral), vehicle: saline 100 % of control and 102 % of control | dose: 1024.0 mg/kg/injection, schedule: Q01DX001 (oral), vehicle: saline 100 % of control and 107 % of control

CCC1(O)CC2CN(CCc3c([nH]c4ccccc34)C(C(=O)OC)(c3cc4c(cc3OC)N(C)C3C(O)(C(=O)NCCO)C(O)C5(CC)C=CCN6CCC43C65)C2)C1 (stereo not given)
inactive: [4] 108 % of control | [5] 113 % of control | [6] 117 % of control | [7] 108 % of control | [8] 108 % of control

Cc1nc(N)nc(N)c1-c1ccc(Cl)c(Cl)c1
inactive: dose: 0.5 mg/kg/injection, schedule: Q01DX005 (ip), vehicle: saline with Tween-80 106 % of control and 117 % of control | dose: 1.0 mg/kg/injection, schedule: Q01DX005 (ip), vehicle: saline with Tween-80 89 % of control and 97 % of control | dose: 2.0 mg/kg/injection, schedule: Q01DX005 (ip), vehicle: saline with Tween-80 117 % of control | dose: 6.0 mg/kg/injection, schedule: Q04DX003 (ip), vehicle: saline 101 % of control | dose: 8.0 mg/kg/injection, schedule: Q04DX003 (ip), vehicle: saline 112 % of control

COc1ccc(C[C@H](N)C(=O)NC2C(CO)OC(n3cnc4c(N(C)C)ncnc43)C2O)cc1 (stereo not given in full)
inactive: dose: 20.0 mg/kg/injection, schedule: Q01DX005 (ip), vehicle: saline 104 % of control | dose: 40.0 mg/kg/injection, schedule: Q01DX005 (ip), vehicle: saline 101 % of control
